Patent publication US20070027118A1 (priority 2005, published 2007)

Molecular target: 11β-hsd-1 enzyme (Homo sapiens, UniProt P28845)
Assay: biochemical
Conditions: for inhibition at 0.1 µM: read-out: % Inh @ 0.1 μM; for inhibition: read-out: % Inh @ 0.1 mM
Method: Percentage of inhibition was determined in a 100 mM Triethanolamine buffer, pH 8.0, 200 mM NaCl, 0.02% n-dodecyl β-D-maltoside and 5 mM β-ME. A typical reaction was carried on a Corning® u-bottom 96-well plate and is described as follows: 11β-hsd-1 enzyme (5 nM, final concentration) was pre-incubated in the presence of the inhibitor and NADPH (500 μM, final concentration) for at least 30 minutes
in the assay buffer. When pre-incubation was completed, the reaction was initiated by adding the regenerating system (2 mM Glucose-6-Phosphate, 1U/mL Glucose-6-Phosphate dehydrogenase, and 6 mM MgCl2, all the concentration reported are final in the assay buffer), and 3H-cortisone (200 nM, final concentration). After 60 minutes, 60 μL of the assay mixture was transferred to a second 96-well plate and mixed with an equal volume of dimethylsulfoxide to stop the reaction. A 15 μL aliquot from the reaction mixture was loaded into a C-18 column (Polaris C18-A, 50×4.6 mm, 5 μ, 180 Angstrom from Varian) connected to an automated High-throughput Liquid Chromatography instrument developed by Cohesive Technologies Inc of Franklin, Mass., with a […] model 3 Radio-HPLC detector from IN/US of Tampa, Fla. The substrate and product peaks were separated by using an isocratic mixture of 43:57 methanol to water (v/v) at a flow rate of 1.0 mL/min.
Percent Inhibition was calculated based on the following equation: (1-(3H-Cortisol peak area in the […] of inhibitor)×100).

Chain of 11β-hsd-1 enzyme (P28845 whole entry, species assumed): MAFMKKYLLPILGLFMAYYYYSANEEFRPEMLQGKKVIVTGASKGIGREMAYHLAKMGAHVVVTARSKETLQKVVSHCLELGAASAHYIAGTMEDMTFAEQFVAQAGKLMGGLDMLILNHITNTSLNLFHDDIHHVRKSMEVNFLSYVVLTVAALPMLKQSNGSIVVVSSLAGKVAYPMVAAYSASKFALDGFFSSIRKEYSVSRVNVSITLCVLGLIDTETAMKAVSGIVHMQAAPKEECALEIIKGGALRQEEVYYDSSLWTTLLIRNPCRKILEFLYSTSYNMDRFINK

SMILES | inhibition at 0.1 µM | inhibition
Cc1cccc(NS(=O)(=O)N2CCN(c3ncccc3C)CC2)n1 [Example 4] | 26.6% | –
Cc1cccc(NS(=O)(=O)N2CCN(c3ncccc3C(F)(F)F)CC2)n1 [Example 5] | 44.6% | –
Cc1ccnc(N2CCN(S(=O)(=O)Nc3cccc(C)n3)CC2)c1 [Example 6] | 56.2% | –
Cc1cccc(NS(=O)(=O)N2CCN(Cc3ccccc3)CC2)n1 [Example 7] | 17.7% | –
Cc1cccc(NS(=O)(=O)N2CCOCC2c2ccc(F)cc2)n1 (stereo not shown) [Example 21] | 10.6% | –
Cc1cccc(NS(=O)(=O)N2C[C@H]3C[C@@H]2CN3c2ccc(C#N)cn2)n1 [Example 24] | 0% | –
O=S(=O)(Nc1ccc2ncccc2n1)N1CCC(c2ccc(C(F)(F)F)cn2)CC1 [Example 36, N-1,5-naphthyridin-2-yl-4-[5-(trifluoromethyl)pyridin-2-yl]piperidine-1-sulfonamide] | 89% | –
C[C@@H]1CN(S(=O)(=O)Nc2cccc(CO)n2)CCN1c1ncc(F)cn1 [Example 40, (3R)-4-(5-fluoropyrimidin-2-yl)-N-[6-(hydroxymethyl)pyridin-2-yl]-3-methylpiperazine-1-sulfonamide] | 100% | –
Cc1cc(C)nc(NS(=O)(=O)N2CCc3ccc(S(C)(=O)=O)cc3CC2)c1 [Example 41] | 55% | –
Cc1cc(N)nc(NS(=O)(=O)N2CCn3c(nc4cc(C(F)(F)F)ccc43)C2)c1 [Example 47] | 100% | –
Cc1cc(N)nc(NS(=O)(=O)N2CCn3c(nc4cc(Cl)ccc43)C2)c1 [Example 48] | 100% | –
Cc1cc(N)nc(NS(=O)(=O)N2CCn3c(nc4cccc(C)c43)C2)c1 [Example 49] | 100% | –
Cc1cc(N)nc(NS(=O)(=O)N2CCn3c(nc4ccccc43)C2)c1 [Example 50] | 100% | –
Cc1cc(N)nc(NS(=O)(=O)N2CCn3cc(C(F)(F)F)nc3C2)c1 [Example 51] | 38% | –
Cc1cc(N)nc(NS(=O)(=O)N2CCn3c(-c4ccccc4)cnc3C2)c1 [Example 52] | 100% | –
Cc1cc(N)cc(NS(=O)(=O)N2CCC(Oc3ccccc3F)CC2)c1 [Example 53] | 100% | –
Cc1cc(N)cc(NS(=O)(=O)N2CCC(Oc3cccc(F)c3)CC2)c1 [Example 54] | 100% | –
Cc1cc(N)cc(NS(=O)(=O)N2CCC(Oc3ccccc3)CC2)c1 [Example 55] | 92% | –
Cc1cc(N)cc(NS(=O)(=O)N2CCC(C(F)(F)F)CC2)c1 [Example 56] | 100% | –
C[C@H]1CN(S(=O)(=O)Nc2cccc(CO)n2)CCN1c1ccc(C#N)cn1 [Example 58, (3S)-4-(5-cyanopyridin-2-yl)-N-[6-(hydroxymethyl)pyridin-2-yl]-3-methylpiperazine-1-sulfonamide] | 100% | –
CC1CN(c2ccc(C#N)cn2)CCN1S(=O)(=O)Nc1cccc(CO)n1 (stereo not shown) [Example 59, 4-(5-cyanopyridin-2-yl)-N-[6-(hydroxymethyl)pyridin-2-yl]-2-methylpiperazine-1-sulfonamide] | 94.2% | –
CCc1cccc(NS(=O)(=O)N2CCC(c3ncccn3)CC2)n1 [Example 60, N-(6-ethylpyridin-2-yl)-4-pyrimidin-2-ylpiperidine-1-sulfonamide] | 7% | –

SMILES | inhibition at 0.1 µM | inhibition
CCc1cccc(NS(=O)(=O)N2CCN(C(C)C)CC2)n1 [Example 61] | 0% | –
CCc1cccc(NS(=O)(=O)N2CCN(C3CCCCC3)CC2)n1 [Example 62] | 0% | –
CCc1cccc(NS(=O)(=O)N2CCC3(CCc4cc(Cl)ccc4O3)CC2)n1 [Example 63] | 40% | –
CCc1cccc(NS(=O)(=O)N2CCC3(CCc4cc(C)ccc4O3)CC2)n1 [Example 64] | 5.4% | –
CCc1cccc(NS(=O)(=O)N2CCC3(CC2)CC(=O)c2cc(Cl)ccc2O3)n1 [Example 65] | 4.7% | –
CCc1cccc(NS(=O)(=O)N2CCC3(CCc4ccccc4O3)CC2)n1 [Example 66] | 42.8% | –
CCc1cccc(NS(=O)(=O)N2CCC(c3c[nH]c4ccccc34)CC2)n1 [Example 67] | 62.6% | –
CCc1cccc(NS(=O)(=O)N2C[C@@H]3C[C@H]2CN3c2ccccc2)n1 [Example 69] | 5.6% | –
Cc1ccc(C2(C)CN(S(=O)(=O)Nc3cccc(C)n3)CCO2)cc1 (stereo not shown) [Example 70, 2-methyl-2-(4-methylphenyl)-N-(6-methylpyridin-2-yl)morpholine-4-sulfonamide] | – | 85.3%
CCc1cccc(NS(=O)(=O)N2CCCC(c3nc(C)no3)C2)n1 (stereo not shown) [Example 72, N-(6-ethylpyridin-2-yl)-3-(2-methyl-124-oxadiazol-5-yl)piperidine-1-sulfonamide] | – | 56.7%
CCc1cccc(NS(=O)(=O)N2CCC(c3cccc(C(=O)Nc4ccccn4)c3)CC2)n1 [Example 73, 3-(1-{[(6-ethylpyridin-2-yl)amino]sulfonyl}pipendin-4-yl)-N-pyridin-2-ylbenzamide] | – | 49.6%
CCc1cccc(NS(=O)(=O)N2CCC(c3cccc(C(N)=O)c3)CC2)n1 [Example 75, 3-(1-{[(6-ethylpyridin-2-yl)amino]sulfonyl}piperidin-4-yl)benzamide] | – | 45.6%
CCc1cccc(NS(=O)(=O)N2CCC(c3ccc(C(=O)NC)cc3)CC2)n1 [Example 76, 4-(1-{[(6-ethylpyridin-2-yl)amino]sulfonyl}piperidin-4-yl)-N-methylbenzamide] | – | 34.4%
CCc1cccc(NS(=O)(=O)N2CCC(c3ccc(C(=O)N4CCOCC4)cc3)CC2)n1 [Example 77, N-(6-ethylpyridin-2-yl)-4-[4-(morpholin-4-ylcarbonyl)phenyl]piperi-din-1-sulfonamide] | – | 48.4%
CCc1cccc(NS(=O)(=O)N2CCC(c3ccc(C(=O)NC4CC4)cc3)CC2)n1 [Example 78, N-cyclopropyl-4-(1-{[(6-ethylpyridin-2-yl)amino]sulfonyl}piperi-din-4-yl)benzamide] | – | 64.2%
CCc1cccc(NS(=O)(=O)N2CCC(c3cccc(C(=O)N(CC)CC)c3)CC2)n1 [Example 79, NN-diethy-3-(1-{[(6-ethylpyridin-2-yl)amino]sulfonyl}piperidin-4-yl)benzamide] | – | 51.1%
CCc1cccc(NS(=O)(=O)N2CCC(COCc3ccccc3F)CC2)n1 [Example 92, N-(6-ethylpyridin-2-yl)-4-{[(2-fluorobenzyl)oxy]meth-yl}piperidine-1-sulfonamide] | – | 67.5%
CCc1cccc(NS(=O)(=O)N2CCC(COCc3cccc(OC)c3)CC2)n1 [Example 94, N-(6-ethylpyridin-2-yl)-4-{[(3-methoxybenzyl)oxy]-methyl}pipendine-1-sulfonamide] | – | 40.7%
CCc1cccc(NS(=O)(=O)N2CCC(n3c(C)nnc3CC)CC2)n1 [Example 107, 4-(3-ethyl-5-methyl-4H-124-triazol-4-yl)-N-(6-ethyl-pyridin-2-yl)piperidine-1-sulfonamide] | – | 0%
CCOCC1CCN(S(=O)(=O)Nc2cccc(CC)n2)CC1 [Example 109, 4-(ethoxymethyl)-N-(6-ethylpyridin-2-yl)pipendine-1-sulfonamide] | – | 58.7%
CCc1cccc(NS(=O)(=O)N2CCC(Oc3ccc(C#N)cc3OC)CC2)n1 [Example 110, 4-(4-cyano-2-methoxy-phenoxy)-N-(6-ethylpyridin-2-yl)piperidine-1-sulfonamide] | – | 8%
